Measurements from the supplement of paper PMC11208160.

Test: recombinant UMI read abundance after kanamycin selection (control-corrected) (log10(CPM+1)); higher = more efficient recombination; extreme values may be limits of the assay; sequences stand for … in AGTGCAGAGAAAATCGGCCAGTTTTCTCTGCCTGCAGTCCGCATGCCGTGGGACCCCTTGGGTTCTAACCTGTTGCCTAGATTTATGCAGCGGACTGCCTTTCTCCCAAAGTGATAAACCGG…AGGTTGGTTTCACT; site = the 11-nt donor
How it was run: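 Under IPTG (0.07 mM) plus kanamycin, or without selection, Escherichia coli carrying a UMI-tagged donor and donor-binding-loop pair library and a target plasmid for the IS621 bridge recombinase were plated in two replicates. Recombinant UMIs were PCR-amplified across the donor–target junction and sequenced. Counts were converted to CPM, averaged over replicates, scaled by control-derived factors and reported as log10(CPM+1).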
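Further: IS621 bridge recombinase in Escherichia coli cells against a fixed T5 target plasmid.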

Sequence	recombinant UMI read abundance (log10)
ATGTAGGCATGGACCGGTTTTCCCGGTAATCCGTATTTGGC (site ATGAAGGCTGC)	2.35
ATGTAGGCATGGACCGGTTTTCCCGGTAATCCGTATTTGGC (site ATGCAGGCTGC)	2.19
ATGTAGGCATGGACCGGTTTTCCCGGTAATCCGTATTTGGC (site ATGGAGGCTGC)	0
ATGTAGGCATGGACCGGTTTTCCCGGTAATCCGTATTTGGC (site ATGTAAGCTGC)	2.28
ATGTAGGCATGGACCGGTTTTCCCGGTAATCCGTATTTGGC (site ATGTACGCTGC)	0.834
ATGTAGGCATGGACCGGTTTTCCCGGTAATCCGTATTTGGC (site ATGTAGACTGC)	2.34
ATGTAGGCATGGACCGGTTTTCCCGGTAATCCGTATTTGGC (site ATGTAGCCTGC)	0.604
ATGTAGGCATGGACCGGTTTTCCCGGTAATCCGTATTTGGC (site ATGTAGGCTAC)	1.17
ATGTAGGCATGGACCGGTTTTCCCGGTAATCCGTATTTGGC (site ATGTAGGCTCC)	0.328
ATGTAGGCATGGACCGGTTTTCCCGGTAATCCGTATTTGGC (site ATGTAGGCTGA)	2.15
ATGTAGGCATGGACCGGTTTTCCCGGTAATCCGTATTTGGC (site ATGTAGGCTGC)	2.4
ATGTAGGCATGGACCGGTTTTCCCGGTAATCCGTATTTGGC (site ATGTAGGCTGG)	2.41
ATGTAGGCATGGACCGGTTTTCCCGGTAATCCGTATTTGGC (site ATGTAGGCTGT)	2.51
ATGTAGGCATGGACCGGTTTTCCCGGTAATCCGTATTTGGC (site ATGTAGGCTTC)	1.15
ATGTAGGCATGGACCGGTTTTCCCGGTAATCCGTATTTGGC (site ATGTAGTCTGC)	1.06
ATGTAGGCATGGACCGGTTTTCCCGGTAATCCGTATTTGGC (site ATGTATGCTGC)	0.657
ATGTAGGCATGGACCGGTTTTCCCGGTAATCCGTATTTGGC (site ATGTCGGCTGC)	0.474
ATGTAGGCATGGACCGGTTTTCCCGGTAATCCGTATTTGGC (site ATGTGGGCTGC)	0.618
ATGTAGGCATGGACCGGTTTTCCCGGTAATCCGTATTTGGC (site ATGTTGGCTGC)	0.568

Sequence	recombinant UMI read abundance (log10)
ATGTAGGCATGGACCGGTTTTCCCGGTAATCCGTATTTGGC (site ATTTAGGCTGC)	0.516
ATGTAGGCATGGACCGGTTTTCCCGGTAATCCGTATTTGGC (site CTGTAGGCTGC)	0.572
ATGTAGGCATGGACCGGTTTTCCCGGTAATCCGTATTTGGC (site GTGTAGGCTGC)	0.716
ATGTAGGCATGGACCGGTTTTCCCGGTAATCCGTATTTGGC (site TTGTAGGCTGC)	1.95
ATGTAGGCATGGACCGGTTTTCCCGGTAATCCGTATTTGGG (site ATGTAGGCTAC)	0.251
ATGTAGGCATGGACCGGTTTTCCCGGTAATCCGTATTTGGG (site ATGTAGGCTCC)	0.167
ATGTAGGCATGGACCGGTTTTCCCGGTAATCCGTATTTGGG (site ATGTAGGCTGC)	0
ATGTAGGCATGGACCGGTTTTCCCGGTAATCCGTATTTGGG (site ATGTAGGCTTC)	0.0205
ATGTAGGCATGGACCGGTTTTCCCGGTAATCCGTATTTGTC (site ATGTAGGCTGA)	2.72
ATGTAGGCATGGACCGGTTTTCCCGGTAATCCGTATTTGTC (site ATGTAGGCTGC)	1.62
ATGTAGGCATGGACCGGTTTTCCCGGTAATCCGTATTTGTC (site ATGTAGGCTGG)	2.52
ATGTAGGCATGGACCGGTTTTCCCGGTAATCCGTATTTGTC (site ATGTAGGCTGT)	1.91
ATGTATACATGGACCGGTTTTCCCGGTAATCCGTATTTGCA (site ATGTATACTTG)	2.39
ATGTCGACATGGACCGGTTTTCCCGGTAATCCGTATTTGCG (site ATGTCGACTCG)	0.954
ATGTCGGCATGGACCGGTTTTCCCGGTAATCCGTATTTGGC (site ATGTAGGCTGC)	0.445
ATGTCGGCATGGACCGGTTTTCCCGGTAATCCGTATTTGGC (site ATGTCGGCTGC)	2.2
ATGTCGGCATGGACCGGTTTTCCCGGTAATCCGTATTTGGC (site ATGTGGGCTGC)	0
ATGTCGGCATGGACCGGTTTTCCCGGTAATCCGTATTTGGC (site ATGTTGGCTGC)	0.0547
ATGTTCACATGGACCGGTTTTCCCGGTAATCCGTATTTGGT (site ATGTTCACTAC)	1.66

Sequence	recombinant UMI read abundance (log10)
ATGTTTGCATGGACCGGTTTTCCCGGTAATCCGTATTTGCG (site ATGTTTGCTCG)	1.95
ATGTTTGCATGGACCGGTTTTCCCGGTAATCCGTATTTGCT (site ATGTTTGCTAG)	1.94
ATTCCCTCATGGACCGGTTTTCCCGGTAATCCGTATTTGAC (site ATTCCCTCTGT)	3.23
ATTCCTACATGGACCGGTTTTCCCGGTAATCCGTATTTGAC (site ATTCCTACTGT)	0.882
ATTCGAGCATGGACCGGTTTTCCCGGTAATCCGTATTTGCA (site ATTCGAGCTTG)	1.49
ATTCGAGCATGGACCGGTTTTCCCGGTAATCCGTATTTGCA (site CTTCGAGCTTG)	1.44
ATTCGAGCATGGACCGGTTTTCCCGGTAATCCGTATTTGCA (site GTTCGAGCTTG)	0.663
ATTCGAGCATGGACCGGTTTTCCCGGTAATCCGTATTTGCA (site TTTCGAGCTTG)	0.947
ATTCGCCCATGGACCGGTTTTCCCGGTAATCCGTATTTGAA (site ATTCGCCCTTT)	0.156
ATTCGCTCATGGACCGGTTTTCCCGGTAATCCGTATTTGAA (site ATTCGCTCTTT)	0.571
ATTCTCTCATGGACCGGTTTTCCCGGTAATCCGTATTTGTA (site ATTCTCTCTTA)	2.35
ATTCTCTCATGGACCGGTTTTCCCGGTAATCCGTATTTGTA (site CTTCTCTCTTA)	2.42
ATTCTCTCATGGACCGGTTTTCCCGGTAATCCGTATTTGTA (site GTTCTCTCTTA)	1.52
ATTCTCTCATGGACCGGTTTTCCCGGTAATCCGTATTTGTA (site TTTCTCTCTTA)	1.58
ATTCTTACATGGACCGGTTTTCCCGGTAATCCGTATTTGAG (site ATTCTTACTCT)	0.0416
ATTGAAACATGGACCGGTTTTCCCGGTAATCCGTATTTGGC (site ATTGAAACTGC)	2.15
ATTGAAGCATGGACCGGTTTTCCCGGTAATCCGTATTTGCA (site ATTGAAGCTTG)	2.44
ATTGACACATGGACCGGTTTTCCCGGTAATCCGTATTTGAC (site ATTGACACTGT)	2.61
ATTGAGACATGGACCGGTTTTCCCGGTAATCCGTATTTGAT (site ATTGAGACTAA)	0.37
